Measured values as given in patent EP1736154A1 (priority 2005, dated 2006).
Starred links: 1 amine or outer side, 2 acyl side, 3 side chain; linkers in the order of their positions; H or OH if unused. Positions of bridges follow the written chain, without caps; N, C: chain ends. Non-standard residues stand in square brackets, D forms with d. Residues, ends and D or L forms follow the SMILES beside them. Adda = CO[C@@H](Cc1ccccc1)[C@@H](C)/C=C(C)/C=C/[C@H](N[*:1])[C@H](C)C(=O)[*:2]; dAsp(3S-Me) = C[C@H](C(=O)[*:3])[C@@H](N[*:1])C(=O)[*:2]; d(γGlu) = O=C(O)[C@@H](CCC(=O)[*:2])N[*:1]; NMeDha = C=C(NC)C(=O)O

Legend:
SMN2 minigene, exon 7 = assay type: cell-based
tau exon 10 minigene = assay type: cell-based, human
SMN protein = SMN protein expression in SMA patient fibroblasts (Western blot with anti-SMN antibody)

SMILES	exon 7 inclusion of SMN2 MG (SMN2 minigene, exon 7)	also measured
CN(N=O)c1cc(O)ccc1O [Dephostatin]	promote the exon 7 inclusion	–
C=C1C(=O)N[C@H](C)C(=O)N[C@@H](CC(C)C)C(=O)N[C@@H](C(=O)O)[C@H](C)C(=O)N[C@@H](CCCNC(=N)N)C(=O)N[C@@H](/C=C/C(C)=C/[C@H](C)[C@H](Cc2ccccc2)OC)[C@H](C)C(=O)N[C@@H](C(=O)O)CCC(=O)N1C [Microcystin ―LR, Microcystin-LR] (R[Adda][d(γGlu)][NMeDha][dA]L[dAsp(3S-Me)]-OH; lactam N-7)	promote the exon 7 inclusion	–
COC[C@@H]([C@H](O)[C@H](O)C(=O)NCC[C@H](C)c1nc(/C=C/C[C@@H]2O[C@]3(C[C@@H](O)[C@@H]2C)O[C@H]([C@H](C[C@H](O)[C@H](C)[C@H](O)[C@H](C)/C=C(C)/C(C)=C/C=C/C(C)=C\C#N)OC)[C@H](OP(=O)(O)O)C3(C)C)co1)N(C)C [Calyculin A]	promote the exon 7 inclusion	–
C[C@@]12C(=O)OC(=O)[C@]1(C)[C@H]1CC[C@@H]2O1 [Cantharidin]	promote the exon 7 inclusion	–
CO[C@H]([C@H](O)CC(=O)[C@@H](C)[C@@H](O)CC[C@@H](C)[C@@H]1O[C@]2(CC[C@@H](C)[C@H](CC[C@H](C)C(C)=O)O2)CC[C@@H]1C)[C@H](OC(=O)C[C@@H](O)C1=C(C)C(=O)OC1=O)C(C)C [Tautomycin]	–	inclusion of tra2-beta1 dependent enhancers, SMN2-minigene (SMN2 minigene, exon 7): promotes inclusion of tra2-beta1 dependent enhancers; tra2-betal-dependent splicing enhancers (SMN2 MG splicing pattern) (SMN2 minigene, exon 7): can be manipulated; inclusion of tra2-beta1 dependent enhancers, tau exon 10 minigene (tau exon 10 minigene): promotes inclusion of tra2-beta1 dependent enhancers; SMN Protein formation in human fibroblasts (SMN protein): promotes SMN Protein formation
